Assay [1] is filed under the species Rattus norvegicus. Put plainly: Compound was tested for SKCa blocking action by measuring its ability to inhibit after hyperpolarization (AHP) in cultured rat sympathetic neurones. It counts as functional. The following applies: Sympathetic neuron.
The species named for assay [2] is Rattus norvegicus. Put plainly: The ratio of the conc of compound to dequalinium to cause 50% inhibition of the after hyperpolarization (AHP) in cultured rat sympathetic neurones. In kind it is functional, Sympathetic neuron.

Structures are written as SMILES.

Consider `c1cc2cc(c1)C[n+]1ccc(c3ccccc31)NCc1ccc(cc1)CNc1cc[n+](c3ccccc13)C2`, for which it took 3 nM to reach half-maximal inhibition in the assay filed under Rattus norvegicus [1] (IC50). The EMR in the assay listed under Rattus norvegicus [2] is reported as 0.01.
Compound `c1ccc2c(c1)c1cc[n+]2Cc2ccc(cc2)Cc2ccc(cc2)C[n+]2ccc(c3ccccc32)NCc2ccc(cc2)Cc2ccc(cc2)CN1` yielded an IC50 in the assay listed under Rattus norvegicus [1] of 260 nM. Also, in the assay filed under Rattus norvegicus [2], the EMR amounted to 0.31.
The like results for `c1cc2cc(c1)CNc1cc[n+](c3ccccc13)Cc1ccc(cc1)C[n+]1ccc(c3ccccc31)NC2` were, in that order, 70 nM and 0.18.
Taken in the same sequence, the figures for `c1ccc2c(c1)c1cc[n+]2Cc2ccc(cc2)-c2ccc(cc2)C[n+]2ccc(c3ccccc32)NCc2ccc(cc2)Cc2ccc(cc2)CN1` were 150 nM and 0.26.
Taken in the same sequence, the figures for `c1cc2cc(c1)CNc1cc[n+](c3ccccc13)Cc1cccc(c1)C[n+]1ccc(c3ccccc31)NC2` were 130 nM and 0.22.
For the compound `c1ccc2c(c1)c1cc[n+]2Cc2ccc(cc2)C[n+]2ccc(c3ccccc32)NCc2ccc(cc2)CN1`, half-maximal inhibition in the assay filed under Rattus norvegicus [1] (IC50) was put at 28 nM. Further, the EMR in the assay filed under Rattus norvegicus [2] came out at 0.05.
Taken in the same sequence, the figures for `c1ccc2c(c1)c1cc[n+]2Cc2ccc(cc2)Cc2ccc(cc2)C[n+]2ccc(c3ccccc32)NCc2ccc(cc2)-c2ccc(cc2)CN1` were 280 nM and 0.8.
Take `Cc1cc(N)c2ccccc2[n+]1CCCCCCCCCC[n+]1c(C)cc(N)c2ccccc21.[Cl-].[Cl-]` [DEQUALINIUM CHLORIDE]: the midpoint of inhibition in the assay listed under Rattus norvegicus [1], the IC50, lay at 570 nM. In the assay filed under Rattus norvegicus [2], the EMR amounted to 1.
